The values that follow come from article PMC7566600, “Engineering Af1521 improves ADP-ribose binding and identification of ADP-ribosylated proteins” (Nature Communications, 2020).

By Kd is commonly meant a measure of binding affinity in units of concentration. Read a low Kd as tighter binding.

In this assay the target is T1, WT Af1521 macro domain (Archaeoglobus fulgidus, UniProt O28751).
T1 construct: gene AF_1521; macro domain, His-tagged
T1 sequence (O28751 1-192): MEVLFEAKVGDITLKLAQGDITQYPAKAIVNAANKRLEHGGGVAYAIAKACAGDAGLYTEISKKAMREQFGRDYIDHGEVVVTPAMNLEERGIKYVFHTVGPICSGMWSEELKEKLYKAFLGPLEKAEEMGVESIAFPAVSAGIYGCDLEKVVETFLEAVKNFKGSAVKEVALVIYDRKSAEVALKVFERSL
Put plainly: SPR ([…] kinetic fit; steady-state fit gave […]), immobilized protein. The format is binding.

The compound `Nc1ncnc2c1ncn2[C@@H]1O[C@H](COP(=O)(O)OP(=O)(O)OC[C@H]2O[C@H](O)[C@H](O)[C@@H]2O)[C@@H](O)[C@H]1O` [ADP-ribose] came in with a Kd of 2879 ± 9 nM.
